# Like-named read-outs stand apart in the source and are kept apart here.
# Legend:
# [1] = molecular target: T1, RORγt (Homo sapiens, UniProt P51449); assay: RORγt binding test using fluorescent-labeled synthetic ligand (TR-FRET); settings: for inhibition at 1 µM: read-out: binding inhibitory rate of fluorescent-labeled synthetic ligand to RORγt at test compound 1 μM
# T1 sequence (P51449 1-497 isoform P51449-2): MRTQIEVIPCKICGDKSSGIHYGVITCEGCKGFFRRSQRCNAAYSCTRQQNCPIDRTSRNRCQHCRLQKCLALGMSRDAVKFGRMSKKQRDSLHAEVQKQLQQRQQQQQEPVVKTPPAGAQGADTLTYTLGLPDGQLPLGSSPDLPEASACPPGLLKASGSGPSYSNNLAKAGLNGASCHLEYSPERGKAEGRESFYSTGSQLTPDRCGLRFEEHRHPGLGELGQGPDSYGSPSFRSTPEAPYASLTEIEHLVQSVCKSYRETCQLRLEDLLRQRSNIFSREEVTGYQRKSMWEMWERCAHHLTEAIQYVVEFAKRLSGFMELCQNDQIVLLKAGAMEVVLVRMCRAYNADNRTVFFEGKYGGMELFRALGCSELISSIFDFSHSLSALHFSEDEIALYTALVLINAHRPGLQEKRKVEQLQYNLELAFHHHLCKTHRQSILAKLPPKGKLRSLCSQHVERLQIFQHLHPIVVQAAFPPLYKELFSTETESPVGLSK
# Experimental: RORγt Binding Test using Fluorescent-Labeled Synthetic Ligand
# The binding activity of the test compound to RORγt was measured by a time resolved fluorescence resonance energy transfer method (TR-FRET) utilizing histidine-tagged RORγt, fluorescent-labeled synthetic ligand and terbium-labeled anti-histidine tag antibody (Invitrogen). First, a test compound diluted with an assay buffer (20 mM Tris-HCl (pH 7.5), 100 mM NaCl, 1 mM DTT, 0.1% BSA) was added to a 384 well plate by 3 μL. Then, RORγt diluted with an assay buffer to 240 nM was added by 3 μL, after which fluorescent-labeled synthetic ligand diluted with the assay buffer to 12 μM was added by 3 μL, and the mixture was stood at room temperature for 20 min. Thereafter, a terbium-labeled anti-histidine tag antibody diluted with the assay buffer to 8 nM was added by 3 μL. The mixture was stood at room temperature for 20 min, and fluorescence intensity (excitation wavelength 320 nm, fluorescence wavelength 520 nm, delay time 100 microseconds) was measured by Envision (PerkinElmer).
# [2] = molecular target: T1, RORγt; assay: Cofactor recruitment test (Alpha Screen, biotinylated SRC-1 peptide); assay type: biochemical; settings: for inhibition at 1 µM: read-out: signal value inhibitory rate at test compound 1 μM
# Experimental: Cofactor Recruitment Test
# Cofactor recruitment test was performed by Alpha Screen (Histidine Detection Kit, PerkinElmer) method. First, a test compound was diluted with an assay buffer (50 mM Tris-HCl (pH 7.5), 50 mM KCl, 1 mM DTT, 0.1% BSA) and added to a 384 well plate by 5 μL. […] The mixture was stood in a dark place for 1 hr, and the signal value was measured by Envision (PerkinElmer).
# [3] = molecular target: T1, RORγt; assay: Jurkat reporter test (human IL-17 ROR response element luciferase, RORγt vector); assay type: cell-based; settings: Jurkat cells; for inhibition at 3 µM: test compound 3 μM, read-out: luminescence level inhibitory rate at test compound 3 μM
# Experimental: The Jurkat cells used for the reporter test were cultured in a culture medium (RPMI (Invitrogen), 10% FCS (AusGeneX), 100 U/mL penicillin, 100 μg/mL streptomycin). On the day of the test, 4×10^7 cells were recovered by a centrifugal operation (1000 rpm, 5 min.) and suspended in PBS (phosphate buffered saline) (Invitrogen). Thereafter, the cells were recovered again by a centrifugal operation, and suspended in 2 mL of R buffer (NEON transfection kit, Invitrogen). […] Gene transfer was performed by Electroporation apparatus (NEON, Invitrogen) under the conditions of pulse voltage 1350 V, interval 10 milliseconds, number of times 3. The cells after gene transfer were suspended in 40 mL of a reaction medium (RPMI, 10% Lipid reduced FCS (HyClone), 10 mM HEPES (pH 7.5), 100 U/mL penicillin, 100 μg/mL streptomycin, 5 μM lovastatin), and plated in a 96 well plate by 90 μL. A test compound diluted with the reaction medium was added by 10 μL, and the cells were cultured overnight in an incubator. Bright-Glo (Promega) was added by 100 μL, and the mixture was stirred at room temperature for 10 min, and the luminescence level was measured by Envision (PerkinElmer).
inhibition at 1 µM ([1]; test compound 1 μM) [%],inhibition at 1 µM ([2]; test compound 1 μM) [%],inhibition at 3 µM ([3]; Jurkat) [%],SMILES,inhibition at 1 µM [1] [%],inhibition at 1 µM [2] [%],inhibition at 3 µM [3] [%],also measured
101,85,99,"CCOc1ccc2c(c1)CCN(C(=O)[C@H]1C[C@@H](CC(=O)O)C1)[C@H]2C(=O)Nc1cc(F)c(C(C)(C)COC)c(F)c1 [Example 17, (cis-3-(((1R)-1-((3,5-difluoro-4-(1-methoxy-2-methylpropan-2-yl)phenyl)carbamoyl)-6-ethoxy-3,4-dihydroisoquinolin-2(1H)-yl)carbonyl)cyclobutyl)acetic acid]",–,–,–,–
102,83,99,"COCC(C)(C)c1c(F)cc(NC(=O)[C@H]2c3ccc(OC)cc3CCN2C(=O)[C@H]2C[C@@H](CC(=O)O)C2)cc1F [Example 35, (cis-3-(((1R)-1-((3,5-difluoro-4-(1-methoxy-2-methylpropan-2-yl)phenyl)carbamoyl)-6-methoxy-3,4-dihydroisoquinolin-2(1H)-yl)carbonyl)cyclobutyl)acetic acid]",–,–,–,–
102,72,102,"COc1ccc2c(n1)CCN(C(=O)[C@H]1C[C@@H](C(=O)OCc3ccccc3)C1)[C@H]2C(=O)Nc1cc(F)c2c(c1)CCC2(C)C [Example 36, benzyl cis-3-(((5R)-5-((7-fluoro-1,1-dimethyl-2,3-dihydro-1H-inden-5-yl)carbamoyl)-2-methoxy-7,8-dihydro-1,6-naphthyridin-6(5H)-yl)carbonyl)cyclobutanecarboxylate]",–,–,–,–
102,61,102,"COc1ccc2c(n1)CCN(C(=O)[C@H]1C[C@@H](CC(=O)OCc3oc(=O)oc3C)C1)[C@H]2C(=O)Nc1cc(F)c2c(c1)CCC2(C)C [Example 38, (5-methyl-2-oxo-1,3-dioxol-4-yl)methyl (cis-3-(((5R)-5-((7-fluoro-1,1-dimethyl-2,3-dihydro-1H-inden-5-yl)carbamoyl)-2-methoxy-7,8-dihydro-1,6-naphthyridin-6(5H)-yl)carbonyl)cyclobutyl)acetate]",–,–,–,–
101,63,103,"CCOC(=O)C[C@H]1C[C@@H](C(=O)N2CCc3nc(OC)ccc3[C@@H]2C(=O)Nc2cc(F)c3c(c2)CCC3(C)C)C1 [Example 39, ethyl (cis-3-(((5R)-5-((7-fluoro-1,1-dimethyl-2,3-dihydro-1H-inden-5-yl)carbamoyl)-2-methoxy-7,8-dihydro-1,6-naphthyridin-6(5H)-yl)carbonyl)cyclobutyl)acetate]",–,–,–,–
101,66,101,"COC(=O)C[C@H]1C[C@@H](C(=O)N2CCc3nc(OC)ccc3[C@@H]2C(=O)Nc2cc(F)c3c(c2)CCC3(C)C)C1 [Example 45, methyl (cis-3-(((5R)-5-((7-fluoro-1,1-dimethyl-2,3-dihydro-1H-inden-5-yl)carbamoyl)-2-methoxy-7,8-dihydro-1,6-naphthyridin-6(5H)-yl)carbonyl)cyclobutyl)acetate]",–,–,–,–
102,69,102,"COc1ccc2c(n1)CCN(C(=O)[C@H]1C[C@@H](C(=O)OC)C1)[C@H]2C(=O)Nc1cc(F)c2c(c1)CCC2(C)C [Example 46, methyl cis-3-(((5R)-5-((7-fluoro-1,1-dimethyl-2,3-dihydro-1H-inden-5-yl)carbamoyl)-2-methoxy-7,8-dihydro-1,6-naphthyridin-6(5H)-yl)carbonyl)cyclobutanecarboxylate]",–,–,–,–

# The next lines start with the compound.
SMILES,inhibition at 1 µM ([1]; test compound 1 μM) [%],inhibition at 1 µM ([2]; test compound 1 μM) [%],inhibition at 3 µM ([3]; Jurkat) [%],inhibition at 1 µM [1] [%],inhibition at 1 µM [2] [%],inhibition at 3 µM [3] [%],also measured
"COc1ccc2c(c1)CCN(C(=O)C1CC1C(=O)O)[C@H]2C(=O)Nc1cc(F)c([Si](C)(C)C)c(F)c1 (single isomer, unassigned) [Example 3]",–,–,–,102,84,97,–
"COc1ccc2c(c1)CCN(C(=O)[C@H]1C[C@H](C(=O)O)C1)[C@H]2C(=O)Nc1cc(F)c([Si](C)(C)C)c(F)c1 [Example 12, trans-3-(((1R)-1-((3,5-difluoro-4-(trimethylsilyl)phenyl)carbamoyl)-6-methoxy-3,4-dihydroisoquinolin-2(1H)-yl)carbonyl)cyclobutanecarboxylic acid]",–,–,–,102,91,99,–
"COc1ccc2c(n1)CCN(C(=O)[C@@H]1C[C@H]1CC(=O)O)[C@H]2C(=O)Nc1cc(F)c([Si](C)(C)C)c(F)c1 [Example 14, ((1S,2R)-2-(((5R)-5-((3,5-difluoro-4-(trimethylsilyl)phenyl)carbamoyl)-2-methoxy-7,8-dihydro-1,6-naphthyridin-6(5H)-yl)carbonyl)cyclopropyl)acetic acid]",–,–,–,101,86,100,–
"COc1ccc2c(c1)CCN(C(=O)[C@H]1C[C@H](CC(=O)O)C1)[C@H]2C(=O)Nc1cc(F)c([Si](C)(C)C)c(F)c1 [Example 27, (trans-3-(((1R)-1-((3,5-difluoro-4-(trimethylsilyl)phenyl)carbamoyl)-6-methoxy-3,4-dihydroisoquinolin-2(1H)-yl)carbonyl)cyclobutyl)acetic acid]",–,–,–,102,91,103,–
"COc1ccc2c(c1)CCN(C(=O)[C@@H]1C[C@H]1CC(=O)O)[C@H]2C(=O)Nc1cc(F)c([Si](C)(C)C)c(F)c1 [Example 30, ((1S,2R)-2-(((1R)-1-((3,5-difluoro-4-(trimethylsilyl)phenyl)carbamoyl)-6-methoxy-3,4-dihydroisoquinolin-2(1H)-yl)carbonyl)cyclopropyl)acetic acid]",–,–,–,101,90,100,–
"COc1ccc2c(c1)CCN(C(=O)[C@H]1C[C@H](CC(=O)O)C1)[C@H]2C(=O)Nc1ccc([Si](C)(C)C)c(F)c1 [Example 34, (trans-3-(((1R)-1-((3-fluoro-4-(trimethylsilyl)phenyl)carbamoyl)-6-methoxy-3,4-dihydroisoquinolin-2(1H)-yl)carbonyl)cyclobutyl)acetic acid]",–,–,–,102,88,100,–
"COCc1ccc2c(c1)CCN(C(=O)[C@H]1C[C@@H](CC(=O)O)C1)[C@H]2C(=O)Nc1cc(F)c2c(c1)CCC2(C)C [Example 40-A, monopotassium (cis-3-(((1R)-1-((7-fluoro-1,1-dimethyl-2,3-dihydro-1H-inden-5-yl)carbamoyl)-6-(methoxymethyl)-3,4-dihydroisoquinolin-2(1H)-yl)carbonyl)cyclobutyl)acetate acetonitrile solvate]",–,–,–,–,–,–,"binding inhibitory rate of fluorescent-labeled synthetic ligand to RORγt at test compound 1 μM ([1]; test compound 1 μM, 1 µM): 102%; signal value inhibitory rate at test compound 1 μM ([2]; test compound 1 μM, 1 µM): 87%; luminescence level inhibitory rate at test compound 3 μM ([3]; 3 µM): 104%"
"COc1ccc2c(n1)CCN(C(=O)[C@H]1C[C@@H](C(=O)OCc3oc(=O)oc3C)C1)[C@H]2C(=O)Nc1cc(F)c2c(c1)CCC2(C)C [Example 44, (5-methyl-2-oxo-1,3-dioxol-4-yl)methyl cis-3-(((5R)-5-((7-fluoro-1,1-dimethyl-2,3-dihydro-1H-inden-5-yl)carbamoyl)-2-methoxy-7,8-dihydro-1,6-naphthyridin-6(5H)-yl)carbonyl)cyclobutanecarboxylate]",102,61,102,–,–,–,–
